From patent publication US20080317875A1, “Inhibitor of PI3 kinase-dependent inflammatory cytokine synthesis and method for inhibiting the same” (priority 2006, published 2008)

How the values were obtained:
[1] = test system: bone marrow-derived dendritic cells (BMDCs); experiment: IL-12p70 production in LPS-stimulated BMDCs after pretreatment with GSK3β inhibitor (ELISA); settings: BMDCs pretreated 1 hr with 10 nM SB216763 or 5 mM LiCl, then 1 μg/ml LPS for 24 hr; FIG. 7B
Protocol: Bone marrow-derived dendritic cells (BMDCs) were isolated from wild-type mice by the method as described in Example 2. […] Meanwhile, after pretreatment for 1 hr with 10 nM GSK3β inhibitor SB216763 (Sigma) or 5 mM LiCl, the isolated BMDCs were stimulated with a 1 μg/ml LPS solution for 24 hr. The content of IL-12 in the culture supernatants after the stimulation was quantified using the ELISA kit specific to anti-mouse IL-12p70.

IFN-γ = settings: MLN cells from mice day 6 after infection, 30 mM LiCO3 in drinking water, vs control group; FIG. 8E
Protocol: The mesenteric lymph node (MLN) cells were isolated from the mesentery of the mice on day 12 of infection using a syringe needle. After cells were gently suspended, tissue fragments were removed by passing through a 100-μm mesh. Cells were then transferred to RPMI 1640 medium and culture was started at 37° C. Subsequently, the MLN cells were stimulated with bacterial lysate at 37° C. for 72 hr.
Meanwhile, MLN cells were isolated by the method as described in Example 3 from the mice 6 days after the oral infection. The isolated MLN cells were stimulated in vitro with C. rodentium lysate and IFN-γ produced was quantified by ELISA.

C. rodentium = settings: B10.D2 mice, vs control group
Protocol: 200 μl of the culture (a volume equivalent to 2-3×10^8 colony-forming unit (cfu) per mouse) was infected into the mice by oral administration through the diet. Mice were sacrificed after continued housing for a designated period of time. A segment of the distal colon was excised at 4.5 cm from the rectum and the fecal pellets were removed by washing with PBS. After weight measurement and macroscopic observation of the tissue, homogenization was performed with a Potter Elvehjem homogenizer (digital homogenizer, As One). The homogenate was serially diluted with cold PBS and then seeded on MacConkey's agar plates (Difco Laboratories). The number of the colonies produced on the plate was counted to determine CFU per mouse to be used as an indicator of the degree of infection. […]
Wild-type B10.D2 mice were orally infected with C. rodentium by the method as described in Example 3. Three days after infection, the mice were divided into three groups, and one group was sacrificed and the weight of the colon cleared of lumps of feces was measured. […] Each group was housed for three more days, and six days after the infection, the mice in the experimental and control groups were sacrificed and the weight of the colon was measured. […]

Row | SMILES | production of IL-12 (IL-12p70 in culture supernatant) [1] | expression level of IFN-γ in the lymph node cells (IFN-γ) | symptom of bacterial infection in the colon (colon weight, macroscopic and histopathological observation) (C. rodentium; 30 mM LiCO3 in drinking water from day 3 to day 6 after infection, FIG. 8A-C) | number of infecting bacteria in the colon (cfu) (C. rodentium; 30 mM LiCO3 in drinking water, day 6 after infection, p<0.05, FIG. 8D)
1 | Cn1cc(C2=C(c3ccc(Cl)cc3Cl)C(=O)NC2=O)c2ccccc21 [SB216763, reference compound] | decrease | – | – | –
2 | [Cl-].[Li+] [LiCl, lithium chloride] | decrease | – | – | –
3 | O=C([O-])[O-].[Li+].[Li+] [LiCO3, lithium carbonate] | – | decreased | relieved | significantly decreased
